# Assay results as given in article PMC6511062, “Preclinical candidate for the treatment of visceral leishmaniasis that acts through proteasome inhibition” (Proceedings of the National Academy of Sciences of the …, 2019).
# “Also recorded” adds a separate entry of the source. Where two headings read alike, the source gives them in different places.
# How the values were obtained:
# [1] = test system: TA1535; settings: positive control
# Protocol: (§1) oxidative metabolism system (S9-mix). The maximum concentration tested and […]
# (§2) Compound 7a was tested in a bacterial mutation screening assay (Ames test) with Salmonella typhimurium TA1535, TA1537, TA98, TA100 and Escherichia coli WP2uvrA(pKM101) in the presence and absence of an exogenous mammalian […]
# (§3) The bacterial mutation screening assay was a plate incorporation test carried out as previously described15 and according to current methodology. […]
# [2] = test system: TA100; settings: positive control
# Protocol: as §1, §2, §3
# [3] = test system: WP2 uvrA (pKM101); experiment: Ames test, strain WP2 uvrA (pKM101); settings: with S9-mix, dose level 10 per plate, positive control
# Protocol: as §1, §2, §3
# [4] = test system: TA1537; experiment: Ames test, strain TA1537
# Protocol: as §1, §2, §3
# [5] = test system: TA98; experiment: Ames test, strain TA98; settings: without S9-mix, dose level 1 per plate, positive control
# Protocol: as §1, §2, §3
# [6] = test system: THP-1 cells; experiment: Mammalian cell growth inhibition (THP-1); format: cell-based; settings: Homo sapiens
# Excerpt: We hypothesized that, in view of their structural similarity, 1 and 2 probably shared the same mechanism of action.
# [7] = Intrinsic clearance in mouse liver microsomes; format: in vitro ADME
# Protocol: page 13: 4. Parasite assays T. cruzi4, Leishmania donovani axenic amastigote, cidal axenic amastigote and intra- macrophage drug sensitivity assays were conducted as previously described5,6. a. […] Instead of a single readout at 72 h, multiple identical plates were used and read at different time points (24, 48, 72 h). Rate of kill curves showing the luminescence signal at each time point for each concentration were plotted. 5. […] The rate of intrinsic clearance (CLint) of each test compound was then calculated using the following calculation: CLint(mL/min/g liver) = k x V x Microsomal protein yield Where V (mL/mg protein) is the incubation volume/mg protein added and microsomal protein yield is taken as 52.5 mg protein/g liver. Verapamil (0.5 μM) was used as a positive control to confirm acceptable assay performance. 6. Pharmacokinetic studies. a. Mouse and dog PK Mouse pharmacokinetic studies were conducted in male CD-1 mice and male beagle dogs. 3 animals per group were used for each study performed. A dose of 3 mg/kg was administered intravenously, in a bolus form to mice and infused over a 30 min period to dogs. For all the intravenous studies compound were dissolved in 5% DMSO/20% kleptose in saline. A dose of 10 mg/kg was orally administered by gavage to the two species in a suspension of 1% methylcellulose to investigate oral pharmacokinetics. S13
# [8] = CAD (charged aerosol detector) solubility
# [9] = test system: L. donovani intramacrophage amastigotes; experiment: L. donovani intramacrophage assay (amastigotes in differentiated THP-1 cells); format: cell-based, Leishmania donovani; settings: for EC50: Leishmania donovani, L. donovani amastigotes in differentiated THP-1 cells, read-out: Intramacrophage EC50
# Protocol: T. cruzi4, Leishmania donovani axenic amastigote, cidal axenic amastigote and intra-
# macrophage drug sensitivity assays were conducted as previously described5,6. […]
# 5. Intrinsic clearance (CLint) […]
# 6. Pharmacokinetic studies. […]
# [10] = test system: Salmonella typhimurium TA1535, TA1537, TA98, TA100 and Escherichia coli WP2uvrA(pKM101); experiment: Bacterial mutation screening assay (Ames test), overall outcome; format: cell-based; settings: presence and absence of S9-mix
# Protocol: i. Bacterial Mutation (Ames) Assay
# Compound 6 was tested in a bacterial mutation screening assay (Ames test) with Salmonella typhimurium TA1535, TA1537, TA98, TA100 and Escherichia coli WP2uvrA(pKM101) in the presence and absence of an exogenous mammalian oxidative metabolism system (S9-mix). The maximum concentration tested and […]
# Compound 6a was tested in a bacterial mutation screening assay (Ames test) with […]
# Compound 7a was tested in a bacterial mutation screening assay (Ames test) with […]
# as §3
# [11] = Solubility in fasted simulated intestinal fluid (FaSSIF); settings: for FaSSIF solubility: fasted simulated intestinal fluid; for solubility: fasted simulated intestinal fluid (FaSSIF), fassif
# [12] = test system: mouse lymphoma cells; experiment: Mouse lymphoma assay; settings: for MF (Mutation Frequency) / RTG (Relative Total Growth): positive control
# Protocol: oxidative metabolism system (S9-mix). […]
# The maximum […]
# concentrations analysed were 410.45 µg/mL (1 mM, the maximum concentration in accordance with current guidelines and 100 µg/mL (limited by toxicity), for the 3 and […]
# The mouse lymphoma screen was carried out using test methodology based on established procedures for in vitro gene mutation testing17,18,19,20. […]
# [13] = test system: L. donovani promastigotes; experiment: microbe, parasite or virus in culture; format: cell-based, Leishmania donovani; settings: read-out: EC50
# Protocol: 9. Mode of action studies a. Cell lines and culture conditions […]
# c. Generation of drug-resistant parasites […]
# donovani in the continuous presence of this compound. Starting at a sub-lethal […]
# After a total of 120 days in
# Genomic DNA was harvested from three independently generated L. donovani resistant clones and an age match control, as previously described27. PCR was performed using Platinum PCR Supermix (Invitrogen), as per manufacturer’s […]
# generated using primers SubunitB4FW and SubunitB4RV, then sequenced using primer SubunitB4FW (Table S6). To sequence the β5 subunit (LdBPK_361730.1), an […]
# sequenced using primer SubunitB5FW. PCR amplification and DNA sequencing were performed in triplicate for each independently generated cell line. The Leishmania donovani BPK282A1 sequences of the two subunits were identified in TriTrypDB and […]
# e. Generation of overexpression constructs and LdBOB transgenic cell lines The genes encoding the mutated versions of the β4 (LdBPK_360340.1) and the β5 […]
# parasites, were synthesised (GeneArt, Thermo Fischer Scientific). The synthetic genes, flanked by BamHI sites were cloned into the equivalent site of pIR1-SAT. The accuracy of all assembled constructs was verified by sequencing.
# Mid-log-phase L. donovani promastigotes (LdBOB) were transfected with overexpression constructs using the Human T-Cell Nucleofector kit and the Amaxa Nucleofector electroporator (program V-033). Following transfection, cells were […]
# to appropriate drug selection (100 µg/mL nourseothricin). Cloned cell lines were […]
# selection for one passage prior to experiments. […]
# [14] = test system: chymotrypsin-like activity of the L. donovani proteasome; experiment: biochemical; design: species or system Leishmania donovani; settings: lysates from RES II and WT parasites
# Protocol: An in vitro assay was developed that enabled the chymotrypsin-like activity and additional proteolytic activities associated with the proteasome to be directly monitored within proteasome-enriched parasite cell lysates. Likewise, human proteasome from two sources (i.e., commercially pure 26S and enriched proteasome fractions from THP-1 lysates) was tested using the same biochemical assays.
# Proteasome enrichment by ultracentrifugation
# The protocol described by Kisselev et al.34 was adapted to enrich the proteasomes present in L. donovani and THP1 crude extracts. L. donovani or THP1 cells were resuspended in sucrose buffer (50 mM Tris buffer pH 7.5, 5 mM Magnesium chloride, 1 mM EDTA, 50 mM NaCl, 250 mM sucrose, 2 mM ATP, 1 mM DTT) and lysed by nitrogen cavitation for 15 min (110 bars of 1500 psi). Lysates were centrifuged at 20,000g for 30 min at 4 °C and supernatants containing soluble protein were subjected to an ultracentrifugation step at 300,000g for 2h at 4 °C. The resulting proteasome-containing pellets were resuspended in sucrose buffer and left on ice for 30 min to complete solubilization. Samples were centrifuged for 10 min at 20,000 g to remove insoluble material. Proteins contained in supernatant (proteasome enriched fraction) were measured by Bradford.
# Proteasome activity assays
# Compounds were dispensed into black 384-well assay plates (Greiner) by acoustic dispensing (LabCyte ECHO). For potency determinations, eleven-point, one in three dilution curves were generated, with a top concentration of 100 µM. Three proteasome activities were measured using a commercially available indirect enzyme-based luminescent assay kit (Promega) with Suc-LLVY-aminoluciferin, Z-LRR-aminoluciferin and Z-nLPnLD-aminoluciferin used as substrates for chymotrypsin-like, trypsin-like and caspase-like activities, respectively. In addition to proteasome samples: L. donovani and THP1-enriched proteasomes, commercially available human purified 26S proteasome (Boston Biochem) was also assessed.
# [15] = with S9-mix, dose level 5 per plate
# [16] = with S9-mix, dose level 5 per plate, positive control
# [17] = without S9-mix, dose level 50 per plate
# [18] = without S9-mix, dose level 2 per plate
smiles,measurement,setting,value
"Nc1ccc2cc3ccccc3cc2c1 [Compound 2-AAN, 2-Aminoanthracene, reference compound]",Mean revertants per plate,[1]; [15],490.5
same,Ratio treated / solvent,[1]; [15],31.6
same,Mean revertants per plate,[2]; [15],4441.0
same,Ratio treated / solvent,[2]; [15],33.6
same,Mean revertants per plate,[3],1650.5
same,Ratio treated / solvent,[3],11.1
same,Mean revertants per plate,[4]; [16],153.0
same,Ratio treated / solvent,[4]; [16],6.7
"O=[N+]([O-])c1ccc2c(c1)Cc1ccccc1-2 [Compound 2NF, 2-Nitrofluorene, reference compound]",Mean revertants per plate,[5],417.5
same,Ratio treated / solvent,[5],20.5
CCOc1cnc2nc(-c3cccc(NC(=O)c4ccco4)c3)cn2c1 [Compound 3],EC50,[6],> 50 µM
same,CLint,[7],1.8 mL/min/g
same,CLint (intrinsic clearance when incubated with mouse liver microsomes),[7],1.8 mL/min per gram
same,solubility,[8],7 µg/mL
same,EC50,[9],4.2 µM
CCOc1cnc2nc(-c3cccc(NC(=O)N4CCCC4)c3)cn2c1 [Compound 4],EC50,[6],> 50 µM
same,CLint,[7],0.59 mL/min/g
same,CLint (intrinsic clearance when incubated with mouse liver microsomes),[7],0.59 mL/min per gram
same,solubility,[8],7 µg/mL
same,EC50,[9],3.3 µM
O=C(Nc1cccc(-c2cn3cc(N4CCOCC4)cnc3n2)c1)N1CCCC1 [Compound 5],EC50,[6],> 50 µM
same,CLint,[7],0.76 mL/min/g
same,CLint (intrinsic clearance when incubated with mouse liver microsomes),[7],0.76 mL/min per gram
same,solubility,[8],43 µg/mL
same,EC50,[9],8.2 µM
O=C(Nc1ccc(F)c(-c2cn3cc(-c4ccccc4)cnc3n2)c1)N1CCCC1 [Compound 6],AMES,[10],not mutagenic; also recorded: negative
same,EC50,[6],> 50 µM
same,CLint,[7],2.6 mL/min/g
same,solubility,[8],8 µg/mL
same,FaSSIF solubility,[11],poor solubility
same,solubility,[11],4 µg/mL
same,EC50,[9],0.15 µM
O=C(Nc1ccc(F)c(-c2cn3cc(N4CCOCC4)cnc3n2)c1)N1CCCC1 [Compound 6a],AMES,[10],mutagenic in strain TA1537 when tested in the absence of S9-mix; also recorded: positive
same,EC50,[6],> 50 µM
same,CLint,[7],< 0.5 mL/min/g
same,solubility,[8],39 µg/mL
same,FaSSIF solubility,[11],poor solubility
same,solubility,[11],6 µg/mL
same,EC50,[9],0.6 µM
same,improvement of intramacrophage potency,[9]; relative to 5,> 10 fold
"Nc1c2ccccc2nc2ccccc12 [Compound 9-AAC, 9-Amino Acridine, reference compound]",Mean revertants per plate,[4]; [17],249.5
same,Ratio treated / solvent,[4]; [17],17.4
"Cc1c2ccccc2c(C)c2c1ccc1ccccc12 [DMBA, 7,12-dimethylbenz[a]anthracene, reference compound]",Positive / Negative,[12]; 3 hour +S9 treatment,Positive
same,MF (Mutation Frequency),[12]; 3 hour +S9 treatment,1783.48 ×10-6
same,RTG (Relative Total Growth),[12]; 3 hour +S9 treatment,28%
"Cc1nc(C)c(C(=O)Nc2ccc(F)c(-c3nc4ncc(-c5ccccn5)cn4n3)c2)o1 [GNF6702, reference compound]",EC50,[13]; RES I (compound 7-resistant clone),0.527 ± 0.012 µM
same,EC50,[13]; RES III (compound 7-resistant clone),0.768 ± 0.038 µM
same,EC50,[13]; WT promastigotes,0.0018 ± 2e-06 µM
"COS(C)(=O)=O [MMS, methylmethansulfonate, reference compound]",Positive / Negative,[12]; 24 hour -S9 treatment,Positive
same,MF (Mutation Frequency),[12]; 24 hour -S9 treatment,938.58 ×10-6
same,RTG (Relative Total Growth),[12]; 24 hour -S9 treatment,73%
"[N-]=[N+]=[N-].[Na+] [NaN3, Sodium Azide, reference compound]",Mean revertants per plate,[1]; [18],1128.5
same,Ratio treated / solvent,[1]; [18],44.5
same,Mean revertants per plate,[2]; [18],1050.0
same,Ratio treated / solvent,[2]; [18],10.1
"CC(C)C[C@H](NC(=O)[C@H](CCc1ccccc1)NC(=O)CN1CCOCC1)C(=O)N[C@@H](Cc1ccccc1)C(=O)N[C@@H](CC(C)C)C(=O)[C@@]1(C)CO1 [carfilzomib, reference compound]","inhibition of chymotrypsin-like activity, RES II vs WT lysates",[14],equal potency
